What was measured:
healthy subjects = assay: Phase 1 crossover study: clinically assessed injection site reactions
Protocol: • This Phase 1, open-label, 6-arm crossover study included 10 healthy subjects ≥18 and ≤65 years of age. • All subjects received 60 mg of SQ elamipretide to alternating quadrants of the abdomen on each of 6 occasions (FIG. 3), with or without the interventions listed in Table 2. • For each treatment arm, ISR clinical and self-assessments were performed pre-elamipretide administration and at 0.5, 1, 2, 4, 6, 12, 24, and 48 hours after each elamipretide dose. • Blood samples for plasma concentrations of elamipretide and its metabolites were also collected pre-dose and at 0.25, 0.5, 1, 2, 4, and 6 hours post-elamipretide dose. • Primary endpoints consisted of comparisons of the grading from the clinical assessments and the self-assessments of each ISR parameter following administration of elamipretide with each separate intervention versus that of elamipretide alone. • Secondary endpoints consisted of comparison of various pharmacokinetic (PK) parameters and adverse events following administration of elamipretide with each separate intervention versus that of elamipretide alone.
After the screening period (up to 28 days) in this phase 1, open-label, 4-week, 6-part, crossover study, all eligible subjects received 60 mg (0.75 mL) of SC elamipretide to alternating quadrants of the abdomen on each of 6 occasions, with or without potential ISR interventions. The first treatment arm (Arm 1) commenced on Day 1 with administration of elamipretide only, followed by the remaining treatment arms (Arms 2-6) with the following potential mitigations: mometasone furoate, 0.1% ointment, applied once under a hydrocolloid occlusive dressing (DuoDERM Extra Thin) 7 days prior to elamipretide administration (Arm 2); ice application at the elamipretide injection site 5 minutes pre- and post-drug administration (Arm 3); tacrolimus 0.1% ointment applied 15 minutes pre-drug dosing (Arm 4); doxepin 5% cream applied 15 minutes pre-elamipretide administration (Arm 5); and diphenhydramine 50 mg orally taken 2 hours prior to administration (Arm 6). For each treatment arm, blood samples for plasma concentrations of elamipretide and its metabolites were collected pre-dose and at 0.25, 0.5, 1, 2, 4, and 6 hours post-elamipretide dose. Vital signs were recorded pre-dose and at 0.5 and 6 hours post-elamipretide administration. ISR clinical and self-assessments were performed pre-elamipretide administration and at 0.5, 1, 2, 4, 6, 12, 24, and 48 hours after each elamipretide dose. Injection sites were photographed at 0.5, 1, 2, 4, and 12 hours post-elamipretide dose.
The primary endpoints of this study were comprised of the following efficacy measures: clinical assessments and subject self-assessments. Specifically, the primary endpoints consisted of comparisons of the grading of each ISR parameter following administration of elamipretide with each separate intervention versus the grading of each ISR parameter following administration of elamipretide alone. For clinical assessments, the clinical staff used a standard procedure adapted from the Division of Aids Table for Grading the Severity of Adult and Pediatric Adverse Events to score pain, erythema, induration, and pruritus using a 4-point scale based on severity (0=None, 1=Mild, 2=Moderate, 3=Severe, 4=Potentially Life Threatening). The self-assessments were based on a questionnaire to determine how bothered the patient was following each injection of elamipretide and included the following parameters: pain, burning sensation, cold sensation, itching, redness, swelling, and bruising.
All statistical analyses were performed using SAS GRID Linux/SAS Studio (Version 9.4, or higher). PK parameters for elamipretide and its metabolites, M1 and M2, were summarized using descriptive statistics.

[1] = test system: wild type and Mrgprb2 knockout mice
Protocol: Adult mice up to 8 months of age were anesthetized with an intraperitoneal injection of ketamine/xylazine. Fifteen (15) minutes after induction of anesthesia, mice were injected intravenously with 50 μL of 12.5 mg/mL Evans Blue in saline. Five (5) minutes later, 5 μL of 0.5 mg/mL elamipretide (in saline) was administered by injection in one paw and saline was administered in the other paw. Fifteen (15) minutes later, mice were sacrificed by decapitation. Paw tissue was collected, dried for 24 hours at 50° C., and weighed. Evans Blue was extracted by a 24-hour incubation in formamide at 50° C., and the optical density (O.D.) was read at 600 nm (the maximum Evans Blue absorbance) and 740 nm (the minimum specific Evans Blue absorbance) using a spectrophotometer. The value at 740 nm, reflecting Evans Blue-independent O.D., was subtracted from the value at 600 nm to attain the final readout.
Injection site reactions were characterized by local inflammation and edema. The standard assay in mice to monitor local skin inflammation is the Evans Blue assay. In conditions of local skin inflammation, blood vessels become more permeable and components of blood leak out into the local tissue. Evans Blue is a dye that binds to a protein called albumin in the blood and leaks out with the albumin in inflammatory conditions. In this assay, mice were injected intravenously with Evans Blue and the amount of Evans Blue leakage in a tissue was a readout of the extent of inflammation. […] This is preferable to other skin sites in mice, as they are extremely thin, compared to human skin, and injected fluids almost immediately leave the sites of injection.

[2] = 60 mg SQ elamipretide with or without the intervention, across all timepoints, all participants, n = 80
[3] = SQ elamipretide, multiple-dose trials >8 days, n = 376

Cc1cc(O)cc(C)c1C[C@H](NC(=O)[C@H](N)CCCNC(=N)N)C(=O)N[C@@H](CCCCN)C(=O)N[C@@H](Cc1ccccc1)C(N)=O (stereo in doubt) [Elamipretide, H-D-Arg-2′,6′Dmt-Lys-Phe-NH2]
Clinically assessed Erythema or redness, (%) of Reported Reactions (healthy subjects; [2]): (26.3) %
Clinically assessed Erythema or redness, Number of Reported Reactions (healthy subjects; [2]): 21
Clinically assessed Induration or swelling, (%) of Reported Reactions (healthy subjects; [2]): (20.0) %
Clinically assessed Induration or swelling, Number of Reported Reactions (healthy subjects; [2]): 16
Clinically assessed Pain or tenderness, (%) of Reported Reactions (healthy subjects; [2]): (11.3) %
Clinically assessed Pain or tenderness, Number of Reported Reactions (healthy subjects; [2]): 9
Clinically assessed Pruritis, (%) of Reported Reactions (healthy subjects; [2]): (17.5) %
Clinically assessed Pruritis, Number of Reported Reactions (healthy subjects; [2]): 14
time post-dose after which bruising appeared to form (healthy subjects; injection site photographs, in those affected): > 12 h
time post-dose at which ISRs captured on the photographs were resolving (healthy subjects; injection site photographs, with the exception of bruising): 4 h
reduction of Evans Blue accumulation in footpads in Mrgprb2 knockout mice ([1]; 0.5 mg/mL elamipretide, knockout vs wild type): 80%
Evans Blue accumulation in footpads ([1]; Mrgprb2 knockout mice, 0.5 mg/mL elamipretide): almost no Evans Blue accumulation
Evans Blue labeling in footpads ([1]; wild type mice, 5 μL of 0.5 mg/mL elamipretide injected in paw, vs saline): strong Evans Blue labeling
Injection site bruising, (%) of Subjects (subjects; [3]): (12.0) %
Injection site bruising, Number of Subjects (subjects; [3]): 45
Injection site erythema, (%) of Subjects (subjects; [3]): (47.3) %
Injection site erythema, Number of Subjects (subjects; [3]): 178
Injection site haemorrhage, (%) of Subjects (subjects; [3]): (5.9) %
Injection site haemorrhage, Number of Subjects (subjects; [3]): 22
Injection site induration, (%) of Subjects (subjects; [3]): (19.4) %
Injection site induration, Number of Subjects (subjects; [3]): 73
Injection site mass, (%) of Subjects (subjects; [3]): (5.6) %
Injection site mass, Number of Subjects (subjects; [3]): 21
Injection site pain, (%) of Subjects (subjects; [3]): (22.3) %
Injection site pain, Number of Subjects (subjects; [3]): 84
Injection site pruritus, (%) of Subjects (subjects; [3]): (44.7) %
Injection site pruritus, Number of Subjects (subjects; [3]): 168
Injection site swelling, (%) of Subjects (subjects; [3]): (13.8) %
Injection site swelling, Number of Subjects (subjects; [3]): 52
Injection site urticaria, (%) of Subjects (subjects; [3]): (12.5) %
Injection site urticaria, Number of Subjects (subjects; [3]): 47
injection site reactions (ISRs) reported, % of subjects (subjects; subjects receiving SQ elamipretide through clinical trials): 84.4%
